# Measured values reported in the supplement of paper PMC4862054.
# What was measured:
# Details in all cases: incubation time: 72 h
# MDA-MB-436 [1] = test: normalised response (% of control), CellTox Green; higher = less cell death (100 = DMSO, 0 = benzethonium chloride kill control)
# Procedure, shortened: (§1)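 The table gives the normalised signal for a single concentration in each entry. Breast cancer cell lines were seeded (20 µl suspension) into 384-well plates holding compound at 5 concentrations in 10-fold steps over a compound-specific 10,000-fold range and incubated 72 h, then read for CellTox Green fluorescence (485/520 nm) and CellTiter-Glo luminescence. Normalisation on each plate used 0.1 % DMSO (100) and a positive kill control (0).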
# MCF-10A = test: as above
# Procedure, shortened: as §1
# MFM-223 [2] = test: as above
# Procedure, shortened: as §1
# CAL-85-1 [3] = test: as above
# Procedure, shortened: as §1
# CAL-148 [4] = test: as above
# Procedure, shortened: as §1
# HCC1599 [5] = test: as above
# Procedure, shortened: as §1
# CAL-51 [6] = test: as above
# Procedure, shortened: as §1
# MDA-MB-453 [7] = test: as above
# Procedure, shortened: as §1
# HCC1143 [8] = test: as above
# Procedure, shortened: as §1
# DU-4475 [9] = test: as above
# Procedure, shortened: as §1
# MDA-MB-436 [10] = test: normalised viability (% of control), CellTiter-Blue; higher = more viable cells (about 100 = DMSO control)
# Procedure, shortened: (§2)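 Vehicle (100) and a positive kill control (0) anchored the normalisation of each plate, and Z'-factor was used for quality control. Breast cancer cell lines in 20 µl suspension were incubated 72 h over compound in 5 µl medium in 384-well plates, followed by CellTiter-Blue at 560/590 nm. The value is normalised viability at a single listed concentration of the series.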
# MFM-223 [11] = test: as above
# Procedure, shortened: as §2
# SK-BR-3 = test: as above
# Procedure, shortened: as §2
# CAL-120 = test: as above
# Procedure, shortened: as §2
# CAL-85-1 [12] = test: as above
# Procedure, shortened: as §2
# CAL-148 [13] = test: as above
# Procedure, shortened: as §2
# HCC1937 = test: as above
# Procedure, shortened: as §2
# HCC1599 [14] = test: as above
# Procedure, shortened: as §2
# CAL-51 [15] = test: as above
# Procedure, shortened: as §2
# MDA-MB-453 [16] = test: as above
# Procedure, shortened: as §2
# HCC1143 [17] = test: as above
# Procedure, shortened: as §2
# HDQ-P1 = test: as above
# Procedure, shortened: as §2
# DU-4475 [18] = test: as above
# Procedure, shortened: as §2
# Hs578T = test: as above
# Procedure, shortened: as §2
# BT-474 = test: as above
# Procedure, shortened: as §2
compound,measurement,setting,value
Cn1c(=O)c(F)c(Nc2ccc(I)cc2F)c2c(=O)n(C[C@@H](O)CO)cnc21 [TAK-733] (100 nM),normalised response,MDA-MB-436 [1],104%
same,normalised response,MCF-10A,79.7%
same,normalised response,MFM-223 [2],74.9%
same,normalised response,CAL-85-1 [3],89%
same,normalised response,CAL-148 [4],105%
same,normalised response,HCC1599 [5],104%
same,normalised response,CAL-51 [6],80.9%
same,normalised response,MDA-MB-453 [7],112%
same,normalised response,HCC1143 [8],124%
same,normalised response,DU-4475 [9],74%
CC(=O)O[C@H]1C(=O)[C@@]2(C)[C@H]([C@H](OC(=O)c3ccccc3)[C@]3(O)C[C@H](OC(=O)[C@H](O)[C@@H](NC(=O)c4ccccc4)c4ccccc4)C(C)=C1C3(C)C)[C@]1(OC(C)=O)CO[C@@H]1C[C@@H]2O [Paclitaxel],normalised viability,MDA-MB-436 [10]; 1 nM,100%
same,normalised viability,MDA-MB-436 [10]; 100 nM,50.5%
same,normalised viability,MDA-MB-436 [10]; 1000 nM,42.2%
same,normalised viability,MFM-223 [11]; 1 nM,98.2%
same,normalised viability,MFM-223 [11]; 100 nM,45.1%
same,normalised viability,MFM-223 [11]; 1000 nM,51.7%
same,normalised viability,SK-BR-3; 1 nM,84.8%
same,normalised viability,SK-BR-3; 100 nM,13.9%
same,normalised viability,SK-BR-3; 1000 nM,12.9%
same,normalised viability,CAL-120; 1 nM,89.7%
same,normalised viability,CAL-120; 100 nM,23.6%
same,normalised viability,CAL-120; 1000 nM,22.7%
same,normalised viability,CAL-85-1 [12]; 0.3 nM,99.5%
same,normalised viability,CAL-85-1 [12]; 3 nM,76.9%
same,normalised viability,CAL-85-1 [12]; 10 nM,62.2%
same,normalised viability,CAL-148 [13]; 0.3 nM,106%
same,normalised viability,CAL-148 [13]; 3 nM,72.6%
same,normalised viability,CAL-148 [13]; 10 nM,51.2%
same,normalised viability,HCC1937; 1 nM,91.1%
same,normalised viability,HCC1937; 100 nM,15.3%
same,normalised viability,HCC1937; 1000 nM,19.7%
same,normalised viability,HCC1599 [14]; 1 nM,113%
same,normalised viability,HCC1599 [14]; 100 nM,86.7%
same,normalised viability,HCC1599 [14]; 1000 nM,69.6%
same,normalised viability,CAL-51 [15]; 0.3 nM,95.1%
same,normalised viability,CAL-51 [15]; 3 nM,82.9%
same,normalised viability,CAL-51 [15]; 10 nM,57.9%
same,normalised viability,MDA-MB-453 [16]; 0.3 nM,87.7%
same,normalised viability,MDA-MB-453 [16]; 3 nM,63.2%
same,normalised viability,MDA-MB-453 [16]; 10 nM,43.5%
same,normalised viability,HCC1143 [17]; 1 nM,104%
same,normalised viability,HCC1143 [17]; 100 nM,34.5%
same,normalised viability,HCC1143 [17]; 1000 nM,32.5%
same,normalised viability,HDQ-P1; 0.3 nM,88.2%
same,normalised viability,HDQ-P1; 3 nM,55.6%
same,normalised viability,HDQ-P1; 10 nM,46.1%
same,normalised viability,DU-4475 [18]; 0.3 nM,108%
same,normalised viability,DU-4475 [18]; 3 nM,95.5%
same,normalised viability,DU-4475 [18]; 10 nM,64.8%
same,normalised viability,Hs578T; 1 nM,110%
same,normalised viability,Hs578T; 100 nM,16.4%
same,normalised viability,Hs578T; 1000 nM,11.1%
same,normalised viability,BT-474; 1 nM,106%
same,normalised viability,BT-474; 100 nM,25.2%
same,normalised viability,BT-474; 1000 nM,27.7%
COc1c(C)cnc(Cn2cnc3c(Cl)nc(N)nc32)c1C [BIIB021],normalised viability,MDA-MB-436 [10]; 10 nM,92.5%
same,normalised viability,MDA-MB-436 [10]; 1000 nM,43.5%
same,normalised viability,MDA-MB-436 [10]; 10000 nM,25.5%
same,normalised viability,MFM-223 [11]; 10 nM,81.9%
same,normalised viability,MFM-223 [11]; 1000 nM,23%
same,normalised viability,MFM-223 [11]; 10000 nM,23.8%
same,normalised viability,SK-BR-3; 10 nM,85.7%
same,normalised viability,SK-BR-3; 1000 nM,14.5%
same,normalised viability,SK-BR-3; 10000 nM,12.8%
same,normalised viability,CAL-120; 10 nM,84.1%
same,normalised viability,CAL-120; 1000 nM,18.4%
same,normalised viability,CAL-120; 10000 nM,15.2%
same,normalised viability,CAL-85-1 [12]; 3 nM,81%
same,normalised viability,CAL-85-1 [12]; 30 nM,81.5%
same,normalised viability,CAL-85-1 [12]; 100 nM,86.1%
same,normalised viability,CAL-148 [13]; 3 nM,87%
same,normalised viability,CAL-148 [13]; 30 nM,88.6%
same,normalised viability,CAL-148 [13]; 100 nM,72.3%
same,normalised viability,HCC1937; 10 nM,83.1%
same,normalised viability,HCC1937; 1000 nM,25.1%
same,normalised viability,HCC1937; 10000 nM,22.1%
same,normalised viability,HCC1599 [14]; 10 nM,102%
same,normalised viability,HCC1599 [14]; 1000 nM,58.8%
same,normalised viability,HCC1599 [14]; 10000 nM,40.7%
same,normalised viability,CAL-51 [15]; 3 nM,103%
same,normalised viability,CAL-51 [15]; 30 nM,102%
same,normalised viability,CAL-51 [15]; 100 nM,101%
same,normalised viability,MDA-MB-453 [16]; 3 nM,96.5%
same,normalised viability,MDA-MB-453 [16]; 30 nM,79.5%
same,normalised viability,MDA-MB-453 [16]; 100 nM,38.4%
same,normalised viability,HCC1143 [17]; 10 nM,80.8%
same,normalised viability,HCC1143 [17]; 1000 nM,32.1%
same,normalised viability,HCC1143 [17]; 10000 nM,30.6%
same,normalised viability,HDQ-P1; 3 nM,110%
same,normalised viability,HDQ-P1; 30 nM,110%
same,normalised viability,HDQ-P1; 100 nM,77.8%
same,normalised viability,DU-4475 [18]; 3 nM,94.8%
same,normalised viability,DU-4475 [18]; 30 nM,76.1%
same,normalised viability,DU-4475 [18]; 100 nM,80.8%
same,normalised viability,Hs578T; 10 nM,95.3%
same,normalised viability,Hs578T; 1000 nM,61%
same,normalised viability,Hs578T; 10000 nM,46.9%
same,normalised viability,BT-474; 10 nM,104%
same,normalised viability,BT-474; 1000 nM,22.9%
same,normalised viability,BT-474; 10000 nM,27.3%
O=C(c1ccc(OCCN2CCCCC2)cc1)c1c(-c2ccc(O)cc2)sc2cc(O)ccc12 [Raloxifene],normalised viability,MDA-MB-436 [10]; 10 nM,104%
same,normalised viability,MDA-MB-436 [10]; 1000 nM,86.3%
same,normalised viability,MDA-MB-436 [10]; 10000 nM,76.2%
same,normalised viability,MFM-223 [11]; 10 nM,99.8%
same,normalised viability,MFM-223 [11]; 1000 nM,86.2%
same,normalised viability,MFM-223 [11]; 10000 nM,80.6%
same,normalised viability,SK-BR-3; 10 nM,94%
same,normalised viability,SK-BR-3; 1000 nM,94.7%
same,normalised viability,SK-BR-3; 10000 nM,103%
same,normalised viability,CAL-120; 10 nM,99.6%
same,normalised viability,CAL-120; 1000 nM,98.2%
same,normalised viability,CAL-120; 10000 nM,91.8%
same,normalised viability,CAL-85-1 [12]; 3 nM,100%
same,normalised viability,CAL-85-1 [12]; 30 nM,94.5%
same,normalised viability,CAL-85-1 [12]; 100 nM,98%
same,normalised viability,CAL-148 [13]; 3 nM,95.2%
same,normalised viability,CAL-148 [13]; 30 nM,98.6%
same,normalised viability,CAL-148 [13]; 100 nM,93.8%
same,normalised viability,HCC1937; 10 nM,89.3%
same,normalised viability,HCC1937; 1000 nM,93.3%
same,normalised viability,HCC1937; 10000 nM,96.2%
same,normalised viability,HCC1599 [14]; 10 nM,95.7%
same,normalised viability,HCC1599 [14]; 1000 nM,103%
same,normalised viability,HCC1599 [14]; 10000 nM,102%
same,normalised viability,CAL-51 [15]; 3 nM,102%
same,normalised viability,CAL-51 [15]; 30 nM,99.7%
same,normalised viability,CAL-51 [15]; 100 nM,93.7%
same,normalised viability,MDA-MB-453 [16]; 3 nM,106%
same,normalised viability,MDA-MB-453 [16]; 30 nM,97.5%
same,normalised viability,MDA-MB-453 [16]; 100 nM,92.4%
same,normalised viability,HCC1143 [17]; 10 nM,114%
same,normalised viability,HCC1143 [17]; 1000 nM,98.7%
same,normalised viability,HCC1143 [17]; 10000 nM,96.8%
same,normalised viability,HDQ-P1; 3 nM,90.2%
same,normalised viability,HDQ-P1; 30 nM,97.5%
same,normalised viability,HDQ-P1; 100 nM,107%
same,normalised viability,DU-4475 [18]; 3 nM,105%
same,normalised viability,DU-4475 [18]; 30 nM,108%
same,normalised viability,DU-4475 [18]; 100 nM,104%
same,normalised viability,Hs578T; 10 nM,112%
same,normalised viability,Hs578T; 1000 nM,102%
same,normalised viability,Hs578T; 10000 nM,92.8%
same,normalised viability,BT-474; 10 nM,100%
same,normalised viability,BT-474; 1000 nM,103%
same,normalised viability,BT-474; 10000 nM,113%
CS(=O)(=O)CCNCc1ccc(-c2ccc3ncnc(Nc4ccc(OCc5cccc(F)c5)c(Cl)c4)c3c2)o1 [Lapatinib] (1000 nM),normalised response,MDA-MB-436 [1],98.7%
same,normalised response,MCF-10A,26.9%
same,normalised response,MFM-223 [2],104%
same,normalised response,CAL-85-1 [3],59.3%
same,normalised response,CAL-148 [4],64.5%
same,normalised response,HCC1599 [5],107%
same,normalised response,CAL-51 [6],106%
same,normalised response,MDA-MB-453 [7],82.5%
same,normalised response,HCC1143 [8],99%
same,normalised response,DU-4475 [9],100%
O=C(c1ccc(OCCN2CCCCC2)cc1)c1c(-c2ccc(O)cc2)sc2cc(O)ccc12 [Raloxifene] (10000 nM),normalised response,MDA-MB-436 [1],104%
same,normalised response,MCF-10A,82.2%
same,normalised response,MFM-223 [2],102%
same,normalised response,CAL-85-1 [3],63.3%
same,normalised response,CAL-148 [4],103%
same,normalised response,HCC1599 [5],58.4%
same,normalised response,CAL-51 [6],108%
same,normalised response,MDA-MB-453 [7],99.2%
same,normalised response,HCC1143 [8],118%
same,normalised response,DU-4475 [9],99.6%
